Experimental data from ChEMBL document CHEMBL1201862, “PubChem BioAssay data set” (2004).
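Dose response: 5 concentrations. Exposure: 48 h. Format: 96-well plates. Endpoint: linear interpolation; highest concentration if not reached. GI50: concentration for 50% inhibition of growth.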 Activity calls are given as the source filed them. No stated cut-off is given here; in the data, active = GI50 up to about 1.1 µM and inactive = higher.

Columns and labels:
Test in all cases: NCI tumour cell line growth inhibition, 48 h
[1] = system: CAKI-1
[2] = system: HCT-116
[3] = system: DU-145
[4] = system: MDA-MB-231
[5] = system: HOP-62
[6] = system: SN12C
[7] = system: SF-295
[8] = system: RPMI-8226
[9] = system: Malme-3M
[10] = system: HT-29
[11] = system: MDA-MB-435
[12] = system: KM12
[13] = system: CCRF-CEM
[14] = system: NCI-H226
[15] = system: COLO 205
[16] = system: RXF 393
[17] = system: T47D
[18] = system: MDA-N
[19] = system: SK-MEL-2
[20] = system: HOP-92

Row | Structure (SMILES) | GI50 [1] | GI50 [2] | GI50 [3] | GI50 [4] | GI50 [5] | GI50 [6] | GI50 [7] | GI50 [8] | GI50 [9] | GI50 [10] | GI50 [11] | GI50 [12] | GI50 [13] | GI50 [14] | GI50 [15] | GI50 [16] | GI50 [17] | GI50 [18] | GI50 [19] | GI50 [20]
1 | CN(C)S(=O)(=O)c1nc(Cl)c2nc[nH]c2n1 | > 100 µM (inactive) | > 100 µM (inactive) | > 100 µM (inactive) | > 100 µM (inactive) | > 100 µM (inactive) | > 100 µM (inactive) | > 100 µM (inactive) | > 100 µM (inactive) | > 100 µM (inactive) | > 100 µM (inactive) | > 100 µM (inactive) | > 100 µM (inactive) | > 100 µM (inactive) | > 100 µM (inactive) | > 100 µM (inactive) | 55.7 µM (inactive) | > 100 µM (inactive) | > 100 µM (inactive) | > 100 µM (inactive) | 
2 | CCCCCCCCOP(=O)(O)OP(=O)(O)OCC1OC(n2ccc(N)nc2=O)C(O)C1O (stereo not given) | > 100 µM (inactive) | > 100 µM (inactive) |  | > 100 µM (inactive) | > 100 µM (inactive) | > 100 µM (inactive) | > 100 µM (inactive) | > 100 µM (inactive) | > 100 µM (inactive) | > 100 µM (inactive) | > 100 µM (inactive) | > 100 µM (inactive) | > 100 µM (inactive) | > 100 µM (inactive) | > 100 µM (inactive) | > 100 µM (inactive) | > 100 µM (inactive) | > 100 µM (inactive) | > 100 µM (inactive) | > 100 µM (inactive)
3 | O=C1Nc2ccccc2/C1=N/Nc1nc(-c2ccc(Cl)c(Cl)c2)cs1 | 5.69 µM (inactive) | 90.6 µM (inactive) | 92 µM (inactive) | > 100 µM (inactive) | > 100 µM (inactive) | > 100 µM (inactive) | > 100 µM (inactive) |  |  | 56 µM (inactive) | 72.1 µM (inactive) | 29.6 µM (inactive) |  | > 100 µM (inactive) | 29.9 µM (inactive) |  | 26 µM (inactive) | 47 µM (inactive) | 43 µM (inactive) | > 100 µM (inactive)
4 | Cn1c(S)nnc1-c1csc(-c2ccc(Cl)cc2)n1 | 23.4 µM (inactive) | 17.7 µM (inactive) |  | 24 µM (inactive) | 15.4 µM (inactive) | 38.8 µM (inactive) | 15.6 µM (inactive) |  | 30.3 µM (inactive) | > 100 µM (inactive) | > 100 µM (inactive) | > 100 µM (inactive) | > 100 µM (inactive) | 23.1 µM (inactive) | > 100 µM (inactive) | 19 µM (inactive) | 35.3 µM (inactive) | 61 µM (inactive) |  | 12 µM (inactive)
5 | CCSc1nc(COC(=O)NC)c(COC(=O)NC)n1C | 49.5 µM (inactive) | > 100 µM (inactive) |  | > 100 µM (inactive) | 99.3 µM (inactive) | > 100 µM (inactive) | > 100 µM (inactive) | > 97.9 µM (inactive) | > 100 µM (inactive) | > 100 µM (inactive) | > 100 µM (inactive) | > 100 µM (inactive) | 54 µM (inactive) | > 100 µM (inactive) | > 74.3 µM (inactive) | 42.8 µM (inactive) | > 100 µM (inactive) | > 100 µM (inactive) | > 89.7 µM (inactive) | > 80.5 µM (inactive)
6 | CCCC(=O)OC1CC(n2cc(F)c(=O)[nH]c2=O)OC1CO (stereo not given) | 0.141 µM (active) | 0.731 µM (active) | 0.182 µM (active) | > 8.95 µM (inactive) | 0.0583 µM (active) | 0.317 µM (active) | 0.148 µM (active) |  | > 8.79 µM (inactive) | 1.29 µM (inactive) | 2.79 µM (inactive) | > 10 µM (inactive) | 0.0355 µM (active) | > 10 µM (inactive) | 4.71 µM (inactive) | > 5.79 µM (inactive) | > 10 µM (inactive) | 1.63 µM (inactive) | > 10 µM (inactive) | 
7 | CCCCN(CCCC)C(=C(C(Cl)=C(Cl)Cl)[N+](=O)[O-])N(CCCC)CCCC | > 100 µM (inactive) | 67.9 µM (inactive) | > 100 µM (inactive) | 65.2 µM (inactive) | > 100 µM (inactive) | > 100 µM (inactive) | > 100 µM (inactive) | 18.7 µM (inactive) | > 100 µM (inactive) |  | > 100 µM (inactive) | 72.1 µM (inactive) |  | > 100 µM (inactive) | > 100 µM (inactive) |  | 73.8 µM (inactive) | > 100 µM (inactive) | 80.2 µM (inactive) | 90.8 µM (inactive)
